What was measured:
[1] = Antiproliferative activity against human SN40R2 cells derivative of SJSA-1 cells expressing mutant TP53 at 30 uM incubated for 72 hrs by Sulforhodamine B assay; format: functional
[2] = Oral bioavailability in BALB/c mouse at 5 mg/kg by HPLC analysis; format: ADME, organism-based; settings: in vivo
[3] = Plasma protein binding in BALB/c mouse incubated for 48 hrs; format: ADME, cell-free; settings: read-out: PPB (converted)
[4] = Toxicity in CD-1 mouse xenografted human SJSA-1 cells assessed as adverse effect at 50 mg/kg, po single dose for 7 days relative to control; format: organism-based; settings: in vivo, 168 h, time 7 day
[5] = Inhibition of MDM2/IP3 (unknown origin) protein-protein interaction expressed using TNT T7 coupled reticulocyte lysate system incubated for 90 mins by ELISA
[6] = In vivo clearance in nonhuman primate at 0.2 mg/kg, iv by HPLC analysis; format: ADME, organism-based; settings: primates
[7] = Oral bioavailability in nonhuman primate at 5 mg/kg by HPLC analysis; format: ADME, organism-based; settings: primates, in vivo
[8] = Toxicity in CD-1 mouse xenografted human SJSA-1 cells assessed as change in body weight at 50 mg/kg, po single dose for 7 days relative to control; format: organism-based; settings: in vivo, 168 h, time 7 day
[9] = Metabolic stability in CD1 mouse liver microsomes assessed as half life at 1 uM; format: ADME, Microsome
[10] = Plasma protein binding in human incubated for 48 hrs; format: ADME, cell-free; settings: read-out: PPB (converted)
SJSA-1 [11] = test: Antitumor activity in human SJSA-1 cells […] CD-1 mouse xenograft model assessed as increase in p53 expression in tumor at 50 mg/kg, po single dose measured after 3 hrs by MSD analysis relative to control; format: functional
CYP3A4 [12] = target: T1, CYP3A4 (Homo sapiens, UniProt P08684); test: Inhibition of CYP3A4 (unknown origin) using midazolam as substrate in presence of NADPH at 8 uM; format: ADME; settings: probe midazolam
SJSA-1 [13] = test: Antiproliferative activity against human SJSA-1 cells expressing wild type TP53 incubated for 72 hrs by Sulforhodamine B assay; format: functional
[14] = Lipophilicity, logD of compound at pH 7.4 by Chromatography; format: physicochemical; settings: buffer
[15] = Metabolic stability in human liver microsomes assessed as half life at 1 uM; format: ADME, Microsome
[16] = Plasma clearance in BALB/c mouse at 5 mg/kg, po by HPLC analysis; format: ADME, organism-based
SJSA-1 [17] = test: Antitumor activity in human SJSA-1 cells […] CD-1 mouse xenograft model assessed as increase in p53 expression in tumor at 50 mg/kg, po single dose measured after 6 hrs by MSD analysis relative to control; format: functional
SJSA-1 [18] = test: Antitumor activity in human SJSA-1 cells […] CD-1 mouse xenograft model assessed as inhibition of tumor growth at 50 mg/kg, po single dose for 7 days relative to control; format: functional; settings: time 7 day
CYP3A4 [19] = target: T1, CYP3A4; test: Inhibition of human CYP3A4 expressed in human supersomes assessed as half life in presence of NADPH at 1 uM using midazolam as substrate measured after 40 mins; format: ADME; settings: supersomes expressing human CYP3A4, probe midazolam

T1 sequence (P08684 whole entry): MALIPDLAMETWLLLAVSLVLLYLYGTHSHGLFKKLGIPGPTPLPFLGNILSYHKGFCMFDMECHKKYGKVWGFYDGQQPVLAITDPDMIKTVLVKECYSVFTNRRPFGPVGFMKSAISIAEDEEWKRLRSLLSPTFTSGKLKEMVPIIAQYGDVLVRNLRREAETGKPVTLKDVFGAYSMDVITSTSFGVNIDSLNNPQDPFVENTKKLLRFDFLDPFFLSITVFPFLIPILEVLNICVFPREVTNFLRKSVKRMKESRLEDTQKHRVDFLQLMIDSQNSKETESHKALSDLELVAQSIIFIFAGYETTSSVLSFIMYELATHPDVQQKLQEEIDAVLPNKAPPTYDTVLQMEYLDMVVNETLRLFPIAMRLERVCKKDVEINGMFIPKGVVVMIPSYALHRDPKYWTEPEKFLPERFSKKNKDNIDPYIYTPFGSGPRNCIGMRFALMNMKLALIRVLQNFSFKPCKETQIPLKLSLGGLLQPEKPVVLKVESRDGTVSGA

Question: With `[2H]C([2H])(O)C1(C([2H])([2H])O[C@]2(c3ccc(Cl)cc3)c3c(F)cc(C(C)(C)O)cc3C(=O)N2Cc2ccc(C#N)cn2)CC1` as the compound, how does the Activity [1] read?
Answer: 20%

Question: And the bioavailability [2]?
Answer: 46%

Question: What about the fraction unbound at 48 h [3] of the same compound?
Answer: 0.094

Question: What about the Activity [4] of the same compound?
Answer: Non-Toxic

Question: And the IC50 [5]?
Answer: 3.8 nM

Question: And the clearance [6]?
Answer: 11 mL/min/kg

Question: And the bioavailability [7]?
Answer: 31%

Question: What about the Activity [8] of the same compound?
Answer: Non-Toxic

Question: What about the half-life at 1 µM [9] of the same compound?
Answer: 27 min

Question: And the fraction unbound at 48 h [10]?
Answer: 0.086

Question: And the “fold change (FC)” value (SJSA-1 [11])?
Answer: 3.7

Question: What about the inhibition at 8 µM (CYP3A4 [12]) of the same compound?
Answer: 46%

Question: And the GI50 (SJSA-1 [13])?
Answer: 200 nM

Question: What about the chromatographic logD [14] of the same compound?
Answer: 3.8

Question: What about the half-life at 1 µM [15] of the same compound?
Answer: 52 min

Question: And the CL/F [16]?
Answer: 11 mL/min/kg

Question: And the “fold change (FC)” value (SJSA-1 [17])?
Answer: 10.3

Question: And the T/C (SJSA-1 [18])?
Answer: 21%

Question: And the half-life at 1 µM (CYP3A4 [19])?
Answer: 14 min

Reference: ChEMBL document CHEMBL4808170, “Structure-Based Design of Potent and Orally Active Isoindolinone Inhibitors of MDM2-p53 Protein-Protein Interaction” (J Med Chem, 2021)
